Assays:
[1] = tested on: NAD(P)H: oxidoreductase (NQO, EC 1.6.99.2); assay: Spectrophotometric determination of EC 1.6.99.2 (NQO) induction in PC-12 cells; format: cell-based; conditions: Rat PC-12 cells, 24 hours incubation; negative logarithm of molar concentration causing same half maximal induction as reference compound D3T; menadione/MTT
Method: Spectrophotometric Determination of EC 1.6.99.2 (NQO) Induction
Rat PC-12 cells are incubated for 24 hours with a test compound. NAD(P)H: oxidoreductase (NQO, EC 1.6.99.2) activity is measured using menadione as substrate and MTT as readout compound. The formation of formazan from MTT is measured spectrophotometrically at 540 nm. The percentage stimulation (PS) relative to the maximal effect of the reference compound D3T is calculated. The maximal percentage stimulation with the concentration which induced the maximal percentage as condition and the pEA50 value (the negative logarithm of the molar concentration of the compound which caused the same half maximal induction of the enzyme activity as the reference compound D3T) are recorded (see Murphy et al., “Enhanced NAD(P)H:Quinone reductase activity defenses in neuronal cells prevents free radical-mediated damage”, J. Neurochem., 71 69-77, 1998 and Prochaska et al., Analytical Biochemistiy, 169, 328-336 1988).

[2] = tested on: gluthathione-S-transferase (GST, EC 2.5.1.18); assay: Spectrophotometric determination of EC 2.5.1.18 (GST) induction in PC-12 cells; format: cell-based; conditions: Rat PC-12 cells, 24 hours incubation; negative logarithm of molar concentration causing 50% induction of enzyme activity; CDNB and GSH substrates
Method: Spectrophotometric Determination of EC 2.5.1.18 (GST) Induction
Rat PC-12 cells are incubated for 24 hours with a test compound. GST activity is measured using 1-chloro-2,4-dinitrobenzene (CDNB) and gluthathine (GSH) as substrates. The enzyme catalyses the reaction converting these substrates into S-(2,4-dinitrophenyl)glutathione, which product is measured spectrophotometrically at 340 nm. The effect of the test compound is expressed as pEC50: the negative logarithm of the molar concentration of the compound which causes 50% induction of the enzyme activity. Also the maximal percentage enzyme induction is determined. (see Drukarch et al. “Anethole dithiolethione prevents oxidative damage in gluthathione-depleted astrocytes”, Eur. J. Pharmacol. 329, 259-262, 1997).

| GST pEC50 [2] | melting point | SMILES | NQO pEA50 [1] |
| --- | --- | --- | --- |
| 5.8 | 80 to 82 °C | CN=c1ssc(=Nc2ccccc2)n1C [Compound C2] | 6.2 |
| 5.8 | 100 to 101.4 °C | CN=c1ssc(=Nc2ccccc2C)n1C [Compound C3] | 5.7 |
| 5.6 | 76.5 to 77.6 °C | CN=c1ssc(=Nc2cccc(F)c2)n1C [Compound C11] | 5.3 |

Further lines, the compound ahead of its results:

| SMILES | GST pEC50 [2] | melting point | NQO pEA50 [1] |
| --- | --- | --- | --- |
| CCCCc1ccc(N=c2nc(N(C)C)ss2)cc1 [Compound A2] | 5.2 | 81 to 82.5 °C | 5.2 |
| CN(C)c1nc(=Nc2ccc([N+](=O)[O-])cc2)ss1 [Compound A10] | 5.4 | 170 to 171.5 °C | 5.8 |
| Cc1cccc(N=c2nc(N3CCOCC3)ss2)c1 [Compound B5] | 5.3 | 217 to 226 °C | 5.7 |
